Experimental findings from patent publication US9725449B2, “Tricyclic compounds as anticancer agents” (BRISTOL-MYERS SQUIBB COMPANY, priority 2015, dated 2017) are described below.

Each structure is given as a SMILES string. Where only a bound is given, the exact number is not on record here.

For this experiment, the target named is BRD4 (Homo sapiens, UniProt O60885). Nature of the experiment: Time resolved fluorescence resonance energy transfer (TR-FRET) binding assay, bromodomain BRD4. The note with it: one of the FRET assays described; read-out: FRET BRD4 IC50. (In general: Time-resolved FRET reads energy transfer from a long-lived donor to a nearby acceptor.)
On to `Cc1nnn(C)c1-c1cnc2c3ccc(C(C)O)nc3n([C@H](c3ccccc3)C3CCOCC3)c2c1` (stereo partly drawn) [Example 173, 1-[5-(Dimethyl-1H-1,2,3-triazol-5-yl)-8-[(S)-oxan-4-yl(phenyl)methyl]-3,8,10-triazatricyclo[7.4.0.0^2,^7]trideca-1(9),2(7),3,5,10,12-hexaen-11-yl]ethan-1-ol], for which the 50% inhibitory concentration (IC50) – broadly, the midpoint of a concentration-inhibition curve – was < 10 nM.

Turning to `[2H]C([2H])([2H])c1nnn(C)c1-c1cnc2c3cnc(C(C)(C)O)cc3n([C@H](c3ccccc3)C3CCOCC3)c2c1` [Example 284, 2-{5-[4-(^2H3)Methyl-1-methyl-1H-1,2,3-triazol-5-yl]-8-[(S)-oxan-4-yl(phenyl)methyl]-3,8,12-triazatricyclo[7.4.0.0^2,^7]trideca-1(9),2(7),3,5,10,12-hexaen-11-yl}propan-2-ol], the IC50 is < 1 nM.

For `[2H]C([2H])([2H])c1nnn(C)c1-c1cnc2c3c(OCC4CC4)nccc3n([C@H](c3ccccc3)C3CCOCC3)c2c1` [Example 130, 13-(Cyclopropylmethoxy)-5-[4-(^2H3)methyl-1-methyl-1H-1,2,3-triazol-5-yl]-8-[(S)-oxan-4-yl(phenyl)methyl]-3,8,12-triazatricyclo[7.4.0.0^2,^7]trideca-1(13),2(7),3,5,9,11-hexaene], the 50% inhibitory concentration (IC50) is < 1 nM.

For the molecule `CCCC(c1ccc(F)cn1)n1c2cc(-c3c(C)nnn3C)ncc2c2ncc(C(C)(C)O)cc21` (single isomer, unassigned) [Example 375], the half-inhibitory concentration (IC50) was < 1500 nM.

On to `[2H]C([2H])([2H])c1nnn(C)c1-c1cnc2c3c(OCC(F)(F)F)cncc3n([C@H](c3ccccc3)C3CCOCC3)c2c1` [Example 301, 5-[4-(^2H3)Methyl-1-methyl-1H-1,2,3-triazol-5-yl]-8-[(S)-oxan-4-yl(phenyl)methyl]-13-(2,2,2-trifluoroethoxy)-3,8,11-triazatricyclo[7.4.0.0^2,^7]trideca-1(9),2(7),3,5,10,12-hexaene], for which the 50% inhibitory concentration (IC50) was < 1 nM.

As for `Cc1nnn(C)c1-c1cnc2c3ccc(NC(=O)C(C)(C)C)nc3n([C@H](c3ccccc3)C3CCOCC3)c2c1` [Example 207, N-[5-(Dimethyl-1H-1,2,3-triazol-5-yl)-8-[(S)-oxan-4-yl(phenyl)methyl]-3,8,10-triazatricyclo[7.4.0.0^2,^7]trideca-1(9),2(7),3,5,10,12-hexaen-11-yl]-2,2-dimethylpropanamide], the concentration for half-maximal inhibition (IC50) was < 10 nM.

Take `[2H]C([2H])([2H])c1nnn(C)c1-c1cnc2c3c(OCC)ncc(S(C)(=O)=O)c3n([C@H](c3ccccc3)C3CCOCC3)c2c1` [Example 56, 13-Ethoxy-10-methanesulfonyl-5-[4-(^2H3)methyl-1-methyl-1H-1,2,3-triazol-5-yl]-8-[(S)-oxan-4-yl(phenyl)methyl]-3,8,12-triazatricyclo[7.4.0.0^2,^7]trideca-1(13),2(7),3,5,9,11-hexaene]: the IC50 is < 1 nM.

As for `COc1nc(C(C)(C)O)cc2c1c1ncc(-c3c(C)nnn3C)cc1n2[C@@H](c1ncccc1F)C1CCOCC1` [Example 311, 2-{8-[(R)-(3-Fluoropyridin-2-yl)(oxan-4-yl)methyl]-13-methoxy-5-[4-(^2H3)methyl-1-methyl-1H-1,2,3-triazol-5-yl]-3,8,12-triazatricyclo[7.4.0.0^2,^7]trideca-1(9),2(7),3,5,10,12-hexaen-11-yl}propan-2-ol], the IC50 is < 10 nM.

As for `[2H]C([2H])([2H])c1nnn(C)c1-c1cc2c(cn1)c1ncc(C(C)(C)O)cc1n2C(c1ncccc1F)C1CCOCC1` (single isomer, unassigned) [Example 366], the 50% inhibitory concentration (IC50) is < 10 nM.

On to `[2H]C([2H])([2H])c1nnn(C)c1-c1cnc2c3c(OC)nc(C(C)(C)O)cc3n(C(c3ccccc3)C3CCC(F)(F)CC3)c2c1` (stereo not shown) [Example 345, 2-{8-[(4,4-Difluorocyclohexyl)(phenyl)methyl]-13-methoxy-5-[4-(^2H3)methyl-1-methyl-1H-1,2,3-triazol-5-yl]-3,8,12-triazatricyclo[7.4.0.0^2,^7]trideca-1(13),2(7),3,5,9,11-hexaen-11-yl}propan-2-ol], for which the 50% inhibitory concentration (IC50) is < 1 nM.

In the case of `Cc1noc(C)c1-c1cnc2c3c(NS(C)(=O)=O)ncc(S(C)(=O)=O)c3n([C@H](c3ccccc3)C3CCOCC3)c2c1` [Example 102, N-[5-(Dimethyl-1,2-oxazol-4-yl)-10-methanesulfonyl-8-[(S)-oxan-4-yl(phenyl)methyl]-3,8,12-triazatricyclo[7.4.0.0^2,^7]trideca-1(13),2(7),3,5,9,11-hexaen-13-yl]methanesulfonamide], the IC50 is < 10 nM.

For the molecule `COc1ncc(S(C)(=O)=O)c2c1c1ncc(-c3c(C)noc3C)cc1n2[C@H](c1ccc(F)cc1)C1CCOCC1` [Example 49, 5-(Dimethyl-1,2-oxazol-4-yl)-8-[(S)-(4-fluorophenyl)(oxan-4-yl)methyl]-10-methanesulfonyl-13-methoxy-3,8,12-triazatricyclo[7.4.0.0^2,^7]trideca-1(13),2(7),3,5,9,11-hexaene], the IC50 is < 1 nM.

Turning to `Cc1noc(C)c1-c1cnc2c3cc(C(C)(C)O)cnc3n([C@H](c3ccccc3)C3CCOCC3)c2c1` [Example 351, 2-[5-(Dimethyl-1,2-oxazol-4-yl)-8-[(S)-oxan-4-yl(phenyl)methyl]-3,8,10-triazatricyclo[7.4.0.0^2,^7]trideca-1(13),2(7),3,5,9,11-hexaen-12-yl]propan-2-ol], the concentration for half-maximal inhibition (IC50) was < 1500 nM.

In the case of `[2H]C([2H])([2H])c1nnn(C)c1-c1cnc2c3cnc(C(C)=O)cc3n([C@H](c3ccccc3F)C3CCOCC3)c2c1` [Example 333], the IC50 was < 10 nM.

With `[2H]C([2H])([2H])c1nnn(C)c1-c1cnc2c3ccc(C(C)(C)O)nc3n([C@H](c3ccccc3F)C3CCOCC3)c2c1` [Example 241, 2-{8-[(S)-(2-Fluorophenyl)(oxan-4-yl)methyl]-5-[4-(^2H3)methyl-1-methyl-1H-1,2,3-triazol-5-yl]-3,8,10-triazatricyclo[7.4.0.0^2,^7]trideca-1(13),2(7),3,5,9,11-hexaen-11-yl}propan-2-ol], the half-maximal inhibitory concentration (IC50) is < 10 nM.

Regarding `Cc1nnn(C)c1-c1cnc2c3ccc(NCCP(=O)(O)O)nc3n([C@H](c3ccccc3)C3CCOCC3)c2c1` [Example 219, (2-{[5-(Dimethyl-1H-1,2,3-triazol-5-yl)-8-[(S)-oxan-4-yl(phenyl)methyl]-3,8,10-triazatricyclo[7.4.0.0^2,^7]trideca-1(9),2(7),3,5,10,12-hexaen-11-yl]amino}ethyl)phosphonic acid], the IC50 was < 1 nM.

As to `Cc1nnn(C)c1-c1cnc2c3c(Cl)ncc(Cl)c3n([C@H](c3ccccc3)C3CCOCC3)c2c1` [Example 36, 10,13-Dichloro-5-(dimethyl-1H-1,2,3-triazol-5-yl)-8-[(S)-oxan-4-yl(phenyl)methyl]-3,8,12-triazatricyclo[7.4.0.0^2,^7]trideca-1(13),2(7),3,5,9,11-hexaene], the IC50 is < 10 nM.

Regarding `[2H]C([2H])([2H])c1onc(C)c1-c1cnc2c3c(OC)ncc(S(=O)(=O)C([2H])([2H])[2H])c3n(C(c3ncccc3F)C3CCOCC3)c2c1` (stereo not shown) [Example 67, 8-[(3-Fluoropyridin-2-yl)(oxan-4-yl)methyl]-10-(^2H3)methanesulfonyl-13-methoxy-5-[5-(^2H3)methyl-3-methyl-1,2-oxazol-4-yl]-3,8,12-triazatricyclo[7.4.0.0^2,^7]trideca-1(13),2(7),3,5,9,11-hexaene], the IC50 is < 1500 nM.

On to `[2H]C([2H])([2H])c1nnn(C)c1-c1cnc2c3c(OCC4CC4(F)F)nccc3n([C@H](c3ccccc3)C3CCOCC3)c2c1` (stereo partly drawn) [Example 279, 13-[(2,2-Difluorocyclopropyl)methoxy]-5-[4-(^2H3)methyl-1-methyl-1H-1,2,3-triazol-5-yl]-8-[(S)-oxan-4-yl(phenyl)methyl]-3,8,12-triazatricyclo[7.4.0.0^2,^7]trideca-1(9),2(7),3,5,10,12-hexaene], for which the IC50 is < 1 nM.

For the molecule `[2H]C([2H])([2H])c1nnn(C)c1-c1cnc2c3c(OCC4CC4)ncc(S(C)(=O)=O)c3n([C@H](c3ccccc3)C3CCC(F)(F)CC3)c2c1` [Example 94, 13-(Cyclopropylmethoxy)-8-[(S)-(4,4-difluorocyclohexyl)(phenyl)methyl]-10-methanesulfonyl-5-[4-(^2H3)methyl-1-methyl-1H-1,2,3-triazol-5-yl]-3,8,12-triazatricyclo[7.4.0.0^2,^7]trideca-1(13),2(7),3,5,9,11-hexaene], the IC50 is < 10 nM.

`Cc1nnn(C)c1-c1cnc2c3ccc(S(N)(=O)=O)nc3n([C@H](c3ccccc3)C3CCOCC3)c2c1` [Example 195, 5-(Dimethyl-1H-1,2,3-triazol-5-yl)-8-[(S)-oxan-4-yl(phenyl)methyl]-3,8,10-triazatricyclo[7.4.0.0^2,^7]trideca-1(9),2(7),3,5,10,12-hexaene-11-sulfonamide]: the half-maximal inhibitory concentration (IC50) was < 10 nM.

As for `[2H]C([2H])([2H])c1nnn(C)c1-c1cnc2c3c(OC(C)C)ncc(S(C)(=O)=O)c3n([C@H](c3ccc(F)cc3)C3CCOCC3)c2c1` [Example 79, 8-[(S)-(4-Fluorophenyl)(oxan-4-yl)methyl]-10-methanesulfonyl-5-[4-(^2H3)methyl-1-methyl-1H-1,2,3-triazol-5-yl]-13-(propan-2-yloxy)-3,8,12-triazatricyclo[7.4.0.0^2,^7]trideca-1(13),2(7),3,5,9,11-hexaene], the IC50 is < 1 nM.

Take `Cc1noc(C)c1-c1cnc2c3cnc(C(C)(C)O)cc3n([C@H](c3ccccc3)C3CCOCC3)c2c1` [Example 335]: the half-inhibitory concentration (IC50) was < 10 nM.

With `CCOc1ncc(Cl)c2c1c1ncc(-c3c(C)nnn3C)cc1n2[C@H](c1ccccc1)C1CCOCC1` [Example 43, 10-Chloro-5-(dimethyl-1H-1,2,3-triazol-5-yl)-13-ethoxy-8-[(S)-oxan-4-yl(phenyl)methyl]-3,8,12-triazatricyclo[7.4.0.0^2,^7]trideca-1(13),2(7),3,5,9,11-hexaene], the IC50 was < 1 nM.

For `COc1ncc(Br)c2c1c1ncc(-c3c(C)nnn3C)cc1n2[C@H](c1ccccc1)C1CCOCC1` [Example 38, 10-Bromo-5-(dimethyl-1H-1,2,3-triazol-5-yl)-13-methoxy-8-[(S)-oxan-4-yl(phenyl)methyl]-3,8,12-triazatricyclo[7.4.0.0^2,^7]trideca-1(13),2(7),3,5,9,11-hexaene], the half-maximal inhibitory concentration (IC50) was < 10 nM.
